Results published in ChEMBL document CHEMBL1153225 (Bioorg Med Chem Lett, 2010).

System: RAW264.7
Test: Antiresorptive activity in mouse RAW264.7 cells assessed as inhibition of tartrate-resistant acid phosphatase activity at 60 uM
Design: scale not given: the % may be the effect or the level left

Compound: CCCCC/C(=N/S(=O)(=O)c1ccc(C)cc1)N1C(C)CCCC1C (stereo unspecified)
- Activity: 0%
